Key:
5-HT2A receptor [1] = molecular target: T1, 5-HT2A receptor (Homo sapiens, UniProt P28223); test: biochemical; assay type: binding; details: 1 nM [^3H]ketanserin, HEK293 stable cell line; read-out: 5-HT2A Receptor Ki (nM) ([^3H]ketanserin)
T1 construct: host or cells: HEK293
Method in brief: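 Affinity was measured in radioligand binding experiments using [^3H]ketanserin as the labelled ligand, following methods adapted from published procedures.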

5-HT1B receptor = 5-HT1B receptor (Homo sapiens, UniProt P28222); test: cAMP accumulation agonist assay at 5-HT1B; assay type: cell-based; details: cAMP, agonist; read-out: 5-HT1B EC50
5-HT1B receptor, sequence (P28222 whole entry): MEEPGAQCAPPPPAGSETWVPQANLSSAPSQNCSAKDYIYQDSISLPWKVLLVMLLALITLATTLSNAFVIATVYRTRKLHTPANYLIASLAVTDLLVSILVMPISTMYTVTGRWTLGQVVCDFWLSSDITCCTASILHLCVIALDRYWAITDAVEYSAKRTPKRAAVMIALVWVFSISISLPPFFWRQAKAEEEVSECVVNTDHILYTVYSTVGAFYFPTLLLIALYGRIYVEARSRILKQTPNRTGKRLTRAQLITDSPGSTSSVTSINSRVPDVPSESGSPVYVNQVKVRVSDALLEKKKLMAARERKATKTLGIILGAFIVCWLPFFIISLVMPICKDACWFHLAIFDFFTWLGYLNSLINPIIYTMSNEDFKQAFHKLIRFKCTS
Method in brief: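 Agonism was measured by cAMP accumulation in stably transfected cells incubated 60 min at RT. A detection reagent was then added for 60 min at RT before reading, with an 800 nM cAMP standard in blank wells.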

5-HT2A receptor [2] = molecular target: T1, 5-HT2A receptor; test: cell-based; assay type: cell-based; details: Ca^2+ flux, agonist; read-out: 5-HT2A EC50
[3] = Metabolic stability in mouse liver microsomes (MLM); assay type: in vitro ADME; details: 0.50 mg protein per mL; for t1/2: MLM (CD-1), 1 μM; for microsomal CLint at 1 μM: mouse, pooled mouse liver microsomes, pH 7.4, MLM (CD-1)
From the text: MLM Stability Pooled MLM from CD-1 mice (BIOIVT M00501) were used.

5-HT2B receptor = molecular target: T2, 5-HT2B receptor (Homo sapiens, UniProt P41595); test: cell-based; details: Ca^2+ flux, agonist; read-out: 5-HT2B EC50
T2 construct: host or cells: HEK293
T2 sequence (P41595 whole entry): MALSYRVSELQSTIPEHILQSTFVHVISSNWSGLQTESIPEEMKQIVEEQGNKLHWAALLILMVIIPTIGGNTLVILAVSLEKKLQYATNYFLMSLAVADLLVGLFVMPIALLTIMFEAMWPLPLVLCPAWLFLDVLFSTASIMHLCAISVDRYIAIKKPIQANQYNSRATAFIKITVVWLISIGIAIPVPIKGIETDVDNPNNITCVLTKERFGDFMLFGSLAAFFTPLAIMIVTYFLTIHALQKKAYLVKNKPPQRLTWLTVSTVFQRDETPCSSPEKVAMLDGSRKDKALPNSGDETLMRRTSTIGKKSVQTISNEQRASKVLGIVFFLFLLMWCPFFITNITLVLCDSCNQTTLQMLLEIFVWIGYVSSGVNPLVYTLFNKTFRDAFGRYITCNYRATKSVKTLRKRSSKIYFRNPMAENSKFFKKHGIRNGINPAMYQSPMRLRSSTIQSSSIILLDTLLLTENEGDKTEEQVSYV

5-HT1A receptor = molecular target: T3, 5-HT1A receptor (Homo sapiens, UniProt P08908); test: cell-based; details: Ca^2+ flux, agonist; read-out: 5-HT1A EC50
T3 construct: host or cells: CHO cells
T3 sequence (P08908 1-422): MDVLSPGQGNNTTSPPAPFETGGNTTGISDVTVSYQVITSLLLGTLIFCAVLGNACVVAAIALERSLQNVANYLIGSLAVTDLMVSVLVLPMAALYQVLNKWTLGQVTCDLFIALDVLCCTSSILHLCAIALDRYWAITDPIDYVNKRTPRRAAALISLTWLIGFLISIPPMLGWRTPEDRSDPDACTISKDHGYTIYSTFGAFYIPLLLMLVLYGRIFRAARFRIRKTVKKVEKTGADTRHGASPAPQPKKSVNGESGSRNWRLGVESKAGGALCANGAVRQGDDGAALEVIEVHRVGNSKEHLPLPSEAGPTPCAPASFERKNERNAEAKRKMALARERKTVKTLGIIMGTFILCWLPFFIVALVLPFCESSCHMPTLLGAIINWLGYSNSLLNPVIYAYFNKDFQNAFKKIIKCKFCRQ

[4] = Metabolic stability in human liver microsomes (HLM); assay type: in vitro ADME; details: for t1/2: 1 μM, 0.50 mg protein per mL; for microsomal CLint at 1 μM: both sexes, human, pooled human liver microsomes, pH 7.4, 0.50 mg protein per mL
From the text: HLM Stability. Pooled HLM from adult male and female donors (Corning 452117) were used.

[5] = Metabolic stability in rat liver microsomes (RLM); details: for t1/2: RLM, 0.50 mg protein per mL; for microsomal CLint at 1 μM: both, rat, pooled rat liver microsomes, pH 7.4
Alpha1A receptor = molecular target: T4, Alpha1A receptor (Homo sapiens, UniProt P35348); test: FLIPR Ca^2+ flux agonist assay at Alpha1A; assay type: cell-based
T4 sequence (P35348 1-466): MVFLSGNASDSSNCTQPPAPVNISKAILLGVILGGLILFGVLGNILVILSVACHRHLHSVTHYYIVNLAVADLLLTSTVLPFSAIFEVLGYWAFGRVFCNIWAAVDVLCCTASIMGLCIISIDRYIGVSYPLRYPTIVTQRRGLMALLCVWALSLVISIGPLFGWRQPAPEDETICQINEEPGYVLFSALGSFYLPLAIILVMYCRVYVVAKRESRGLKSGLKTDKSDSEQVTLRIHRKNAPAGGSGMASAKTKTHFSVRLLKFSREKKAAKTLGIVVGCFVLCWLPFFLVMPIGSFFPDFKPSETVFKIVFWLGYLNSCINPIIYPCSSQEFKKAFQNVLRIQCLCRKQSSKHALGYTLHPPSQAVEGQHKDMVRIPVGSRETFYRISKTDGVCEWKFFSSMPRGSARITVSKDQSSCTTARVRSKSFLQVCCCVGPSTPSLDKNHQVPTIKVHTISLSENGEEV
Description: Disclosed compounds were tested for agonist activity at several adrenergic (Alpha1A and Alpha2A) and dopamine (D1 and D2) receptor subtypes using Ca^2+ flux functional assays, with the results summarized in Table 6. Selectivity for the 5-HT2A receptor over these other targets varied depending on the specific target and compound.
(§1) Functional Assays at Adrenergic and Dopamine Receptors. Agonist activity at Alpha1A, Alpha2A, D1, and D2 receptors was determined using a FLIPR Ca^2+ flux assay at WuXi AppTec (Hong Kong) Limited according to their standard protocols. Briefly, stably transfected cells expressing the receptor of interest were grown and plated in a 384 well plate and incubated at 37° C. and 5% CO2 overnight. A solution of 250 mM probenecid in 1 mL FLIPR assay buffer was prepared fresh. This was combined with a fluorescent dye (Fluo-4 Direct™) to make a final assay concentration of 2.5 mM. Compounds were diluted 1:3.16 for 10 points and 750 nL was added to a 384 well compound plate using ECHO along with 30 μL assay buffer. The fluorescent dye was then added to the assay plate along with assay buffer to a final volume of 40 μL. The cell plate was incubated for 50 min at 37° C. and 5% CO2 and placed into the FLIPR Tetra along with the compound plate. 10 μL of references and compounds were then transferred from the compound plate into the cell plate and the fluorescent signal was read.

D1 receptor = D1 receptor (Homo sapiens, UniProt P21728); test: FLIPR Ca^2+ flux agonist assay at D1; assay type: cell-based
D1 receptor, sequence (P21728 whole entry): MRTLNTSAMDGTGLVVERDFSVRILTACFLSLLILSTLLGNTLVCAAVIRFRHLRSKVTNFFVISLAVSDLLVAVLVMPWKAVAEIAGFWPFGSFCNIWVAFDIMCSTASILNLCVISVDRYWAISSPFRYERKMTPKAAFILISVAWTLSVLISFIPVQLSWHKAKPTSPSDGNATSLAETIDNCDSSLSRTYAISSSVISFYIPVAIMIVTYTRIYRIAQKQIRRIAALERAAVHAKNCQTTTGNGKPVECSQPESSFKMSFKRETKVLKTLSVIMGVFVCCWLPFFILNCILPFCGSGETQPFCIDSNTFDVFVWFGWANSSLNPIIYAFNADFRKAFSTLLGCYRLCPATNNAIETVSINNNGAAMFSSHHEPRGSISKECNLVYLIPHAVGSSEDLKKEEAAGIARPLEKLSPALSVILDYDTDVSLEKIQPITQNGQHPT
Description: as §1, with “Compounds were diluted 1:3.16 for 10 points and 750 nL was added to a 384 well compound plate using ECHO along with 30 μL assay buffer.” left out

D2 receptor = D2 receptor (Homo sapiens, UniProt P14416); test: FLIPR Ca^2+ flux agonist assay at D2; assay type: cell-based
D2 receptor, sequence (P14416 whole entry): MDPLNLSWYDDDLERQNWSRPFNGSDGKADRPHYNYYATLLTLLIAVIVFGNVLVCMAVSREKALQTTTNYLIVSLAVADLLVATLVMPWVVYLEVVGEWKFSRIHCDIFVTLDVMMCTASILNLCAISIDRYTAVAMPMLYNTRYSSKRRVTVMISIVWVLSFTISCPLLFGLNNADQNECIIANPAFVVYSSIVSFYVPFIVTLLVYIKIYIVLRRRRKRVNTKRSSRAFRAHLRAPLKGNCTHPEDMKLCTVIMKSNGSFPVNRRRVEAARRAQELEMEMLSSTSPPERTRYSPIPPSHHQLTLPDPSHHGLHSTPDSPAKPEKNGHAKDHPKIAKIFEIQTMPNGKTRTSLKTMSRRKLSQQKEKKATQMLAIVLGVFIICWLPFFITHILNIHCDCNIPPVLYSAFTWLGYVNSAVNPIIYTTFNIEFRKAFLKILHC
Description: as §1, with “Compounds were diluted 1:3.16 for 10 points and 750 nL was added to a 384 well compound plate using ECHO along with 30 μL assay buffer.” left out

5-HT2A receptor [6] = molecular target: T1, 5-HT2A receptor; test: PathHunter beta-arrestin recruitment assay at 5-HT2A; assay type: cell-based; details: 5-HT2A beta-arrestin
Method in brief: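 Cells co-express PK-tagged 5-HT2A and beta-arrestin fused to a beta-galactosidase deletion mutant, so arrestin recruitment restores enzyme activity, read by chemiluminescence; cells were held at 37° C before testing. Agonist % activity = RLU over vehicle, relative to the maximal control ligand.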

T1 sequence (P28223 whole entry): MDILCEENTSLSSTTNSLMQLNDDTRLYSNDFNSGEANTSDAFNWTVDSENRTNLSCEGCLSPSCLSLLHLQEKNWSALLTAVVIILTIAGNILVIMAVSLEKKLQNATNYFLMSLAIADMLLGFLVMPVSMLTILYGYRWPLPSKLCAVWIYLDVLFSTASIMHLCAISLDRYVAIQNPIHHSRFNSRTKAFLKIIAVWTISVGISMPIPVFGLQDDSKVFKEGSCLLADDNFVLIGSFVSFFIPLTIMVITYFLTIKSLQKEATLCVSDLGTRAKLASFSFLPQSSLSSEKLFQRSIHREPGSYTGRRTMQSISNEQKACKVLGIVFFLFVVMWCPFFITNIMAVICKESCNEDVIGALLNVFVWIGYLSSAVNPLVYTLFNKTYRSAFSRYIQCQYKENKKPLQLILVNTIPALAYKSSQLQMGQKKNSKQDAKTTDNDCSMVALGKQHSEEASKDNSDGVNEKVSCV

Row | Structure (SMILES) | Ki (5-HT2A receptor [1]) | EC50 (5-HT1B receptor) | EC50 (5-HT2A receptor [2]) | t1/2 [3] | microsomal CLint at 1 μM [3] | EC50 (5-HT2B receptor) | EC50 (5-HT1A receptor) | t1/2 [4] | microsomal CLint at 1 μM [4] | t1/2 [5] | microsomal CLint at 1 μM [5] | EC50 (Alpha1A receptor) | EC50 (D1 receptor) | EC50 (D2 receptor) | Emax (5-HT2A receptor [6]) | agonist type in arrestin recruitment assay (in words) (5-HT2A receptor [6])
1 | CCN(CC)C(=O)[C@@H]1C=C2c3cccc4[nH]cc(c34)C[C@H]2N(CCC(F)(F)F)C1 [Compound 12, (6aR,9R)—N,N-diethyl-7-(3,3,3-trifluoropropyl)-4,6,6a,7,8,9-hexahydroindolo[4,3-fg]quinoline-9-carboxamide] | 5.61 nM | 0.194 µM | 0.0529 µM | 2.1 min | 655 µL/min/mg | 0.154 µM | 2.14 µM | 13.5 min | 103 µL/min/mg | 5.9 min | 236 µL/min/mg | > 3.16 µM | – | – | – | –
2 | CCN(CC)C(=O)[C@@H]1C=C2c3cccc4[nH]cc(c34)C[C@H]2N(CC2CC2)C1 [Compound 13, (6aR,9R)—N,N-diethyl-7-(cyclopropylmethyl)-4,6,6a,7,8,9-hexahydroindolo[4,3-fg]quinoline-9-carboxamide] | 2.23 nM | 0.0986 µM | 0.0259 µM | 3.7 min | 376 µL/min/mg | 0.182 µM | 0.0153 µM | 21.1 min | 65.7 µL/min/mg | 27.7 min | 50 µL/min/mg | 0.0446 µM | – | – | – | –
3 | CCN(CC)C(=O)[C@@H]1C=C2c3cccc4[nH]cc(c34)C[C@H]2N(C)C1 [LSD, lysergic acid diethylamide, reference compound] | – | 0.00206 µM | – | 31.3 min | 44.2 µL/min/mg | – | – | 71.6 min | 19.4 µL/min/mg | 60.2 min | 23 µL/min/mg | 0.0911 µM | 0.00487 µM | 0.00493 µM | < 60% | partial agonists
